{"source": "paper PMC6370995", "about": "“Phase I study of PF‐04895162, a Kv7 channel opener, reveals unexpected hepatotoxicity in healthy subjects, but not rats or monkeys: clinical evidence of disrupted bile acid homeostasis” (Pharmacology Research & Perspectives, 2019)", "key": {"[1]": {"experiment": "HepG2 72 hour cytotoxicity assay based on ATP depletion", "format": "cell-based", "settings": "human, HepG2 cells; HepG2, after 72 hours", "source_text": "[…]"}, "human hepatocytes": {"tested_on": "human hepatocytes", "experiment": "mitochondrial respiratory reserve in human hepatocytes", "format": "cell-based", "settings": "human hepatocytes treated for 25 minutes (data not shown)"}, "MRP4": {"biological_target": "T1, MRP4 (Homo sapiens, UniProt O15439)", "T1 construct": "host or cells: membrane vesicles from HEK293 cells", "T1 sequence (O15439 1-1325)": "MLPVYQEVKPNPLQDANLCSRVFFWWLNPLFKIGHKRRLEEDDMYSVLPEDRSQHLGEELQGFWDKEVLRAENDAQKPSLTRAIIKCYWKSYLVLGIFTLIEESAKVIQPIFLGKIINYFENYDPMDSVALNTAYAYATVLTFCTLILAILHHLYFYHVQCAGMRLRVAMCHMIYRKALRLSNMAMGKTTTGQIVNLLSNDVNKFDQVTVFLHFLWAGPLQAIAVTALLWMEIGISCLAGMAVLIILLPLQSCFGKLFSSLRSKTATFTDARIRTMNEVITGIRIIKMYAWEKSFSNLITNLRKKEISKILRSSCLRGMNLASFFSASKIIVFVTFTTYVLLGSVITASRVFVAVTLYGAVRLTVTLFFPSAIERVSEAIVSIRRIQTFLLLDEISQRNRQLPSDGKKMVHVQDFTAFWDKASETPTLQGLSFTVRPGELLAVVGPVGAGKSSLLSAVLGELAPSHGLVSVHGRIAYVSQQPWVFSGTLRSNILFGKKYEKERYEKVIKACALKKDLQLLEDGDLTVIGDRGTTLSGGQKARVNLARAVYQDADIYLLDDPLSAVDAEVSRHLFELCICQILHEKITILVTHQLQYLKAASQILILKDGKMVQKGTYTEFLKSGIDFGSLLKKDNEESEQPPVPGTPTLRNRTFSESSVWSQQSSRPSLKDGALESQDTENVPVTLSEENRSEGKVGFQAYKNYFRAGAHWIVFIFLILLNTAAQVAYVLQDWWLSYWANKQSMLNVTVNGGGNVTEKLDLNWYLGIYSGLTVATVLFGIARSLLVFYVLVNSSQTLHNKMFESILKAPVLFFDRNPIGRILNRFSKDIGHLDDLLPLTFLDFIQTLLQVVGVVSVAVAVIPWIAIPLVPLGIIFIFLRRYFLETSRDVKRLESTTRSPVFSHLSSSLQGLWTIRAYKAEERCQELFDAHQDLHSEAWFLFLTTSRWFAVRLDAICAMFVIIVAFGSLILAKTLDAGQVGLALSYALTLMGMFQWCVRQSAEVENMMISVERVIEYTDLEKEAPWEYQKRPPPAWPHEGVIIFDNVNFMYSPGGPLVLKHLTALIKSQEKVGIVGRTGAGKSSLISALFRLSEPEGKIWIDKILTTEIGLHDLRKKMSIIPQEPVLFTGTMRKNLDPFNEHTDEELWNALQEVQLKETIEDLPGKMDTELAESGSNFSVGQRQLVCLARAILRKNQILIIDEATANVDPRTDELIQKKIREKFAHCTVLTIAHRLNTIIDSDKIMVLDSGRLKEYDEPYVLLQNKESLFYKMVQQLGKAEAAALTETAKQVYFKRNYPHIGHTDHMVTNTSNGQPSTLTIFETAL", "experiment": "MRP4 transporter inhibition in vesicles from HEK293 cells", "format": "biochemical", "source_text": "[…]"}, "[2]": {"experiment": "7-Day Oral Toxicity Study in Monkeys", "format": "in vivo, cynomolgus monkey", "settings": "both sexes, cynomolgus monkey, plasma, oral, Day 7, males and females, read-out: total Cmax", "procedure": "(§1) Male and female cynomolgus monkeys were administered PF-04895162 twice daily for 7 days at approximately 12 hours apart, with the dose split equally between the 2 daily doses. The highest administered does was 200 mg/kg/day."}, "cynomolgus monkeys [3]": {"tested_on": "cynomolgus monkeys", "experiment": "7-Day Oral Toxicity Study in Monkeys", "format": "in vivo, cynomolgus monkey", "settings": "for liver weight: males and females", "procedure": "as §1"}, "cynomolgus monkeys [4]": {"tested_on": "cynomolgus monkeys", "experiment": "28-day Nasogastric Intubation Toxicity Study in Cynomolgus Monkeys", "format": "in vivo, cynomolgus monkey", "procedure": "A 28-day nasogastric toxicity study was conducted in cynomolgus monkeys at up to 100 mg/kg/day and a 9-month oral toxicity study with a 3-month interim sacrifice was conducted in cynomolgus monkeys at up to 100 mg/kg/day."}, "healthy subjects": {"tested_on": "healthy subjects", "settings": "cited from earlier work; for subjects with mild/moderate transaminase elevations: ref Pfizer data on file"}}, "note": "Where two headings read alike, the source gives them in different places."}
{"molecule": "O=C(Cc1ccc(F)cc1)Nn1c(C2CC2)nc2cc(F)ccc2c1=O", "note": "[PF‐04895162, N‐(2‐cyclopropyl‐7‐fluoro‐4‐oxoquinazolin‐3(4H)‐yl)‐2‐(4‐fluorophenyl)ethanamide]", "values": [{"measurement": "IC50 at 72 h", "setting": "[1]", "result": "~130", "unit": "µM"}, {"measurement": "Concentrations at which mitochondrial respiratory reserve was compromised", "setting": "human hepatocytes", "result": "> 11", "unit": "µmol/L"}, {"measurement": "IC50", "setting": "MRP4", "result": 121, "unit": "µM"}, {"measurement": "Cmax", "setting": "[2]; 150 mg/kg/day", "result": "> 27000", "unit": "ng/mL"}, {"measurement": "Cmax", "setting": "[2]; 200 mg/kg/day", "result": "> 24000", "unit": "ng/mL"}, {"measurement": "Treatment-related clinical findings", "setting": "cynomolgus monkeys [3]; 150 and/or 200 mg/kg/day", "result": "decreased activity, ataxia, inappetence, stereotypy (hyper-reactivity, rigidity, jumping), tremors, loss of limb function, rapid eye movement, and eyelid partially/completely closed"}, {"measurement": "thymus gland weight", "setting": "cynomolgus monkeys [3]; females, 150 and 200 mg/kg/day", "result": "Decreased thymus gland weight"}, {"measurement": "liver weight", "setting": "cynomolgus monkeys [3]; 150 and 200 mg/kg/day", "result": "Increased liver weight"}, {"measurement": "liver weight", "setting": "cynomolgus monkeys [3]; 150 and 200 mg/kg/day, listed as ICA-105665", "result": "increased liver weight"}, {"measurement": "brain weight", "setting": "cynomolgus monkeys [3]; males, 150 and 200 mg/kg/day", "result": "dose-dependent increases in brain weight"}, {"measurement": "clinical chemistry (liver effects)", "setting": "cynomolgus monkeys [3]; twice daily for 7 days, up to 200 mg/kg/day", "result": "no clinical chemistry changes suggestive of liver effects"}, {"measurement": "vomitus, incidence", "setting": "cynomolgus monkeys [4]; 30 mg/kg/day, females", "result": "1/5"}, {"measurement": "vomitus, incidence", "setting": "cynomolgus monkeys [4]; 30 mg/kg/day, males", "result": "1/5"}, {"measurement": "parent AUC24 at the end of the study", "setting": "cynomolgus monkeys [4]; 100 mg/kg/day, 28 days", "result": "mild autoinduction of metabolism"}, {"measurement": "ataxia, incidence", "setting": "cynomolgus monkeys [4]; 100 mg/kg/day, females", "result": "2/5"}, {"measurement": "body tremors, incidence", "setting": "cynomolgus monkeys [4]; 100 mg/kg/day, females", "result": "3/5"}, {"measurement": "dilated pupils, incidence", "setting": "cynomolgus monkeys [4]; 100 mg/kg/day, females", "result": "4/5"}, {"measurement": "hunched posture, incidence", "setting": "cynomolgus monkeys [4]; 100 mg/kg/day, females", "result": "3/5"}, {"measurement": "squinting, incidence", "setting": "cynomolgus monkeys [4]; 100 mg/kg/day, females", "result": "1/5"}, {"measurement": "vomitus, incidence", "setting": "cynomolgus monkeys [4]; 100 mg/kg/day, females", "result": "2/5"}, {"measurement": "ataxia, incidence", "setting": "cynomolgus monkeys [4]; 100 mg/kg/day, males", "result": "2/5"}, {"measurement": "body tremors, incidence", "setting": "cynomolgus monkeys [4]; 100 mg/kg/day, males", "result": "4/5"}, {"measurement": "dilated pupils, incidence", "setting": "cynomolgus monkeys [4]; 100 mg/kg/day, males", "result": "4/5"}, {"measurement": "hunched posture, incidence", "setting": "cynomolgus monkeys [4]; 100 mg/kg/day, males", "result": "3/5"}, {"measurement": "hypoactivity, incidence", "setting": "cynomolgus monkeys [4]; 100 mg/kg/day, males", "result": "2/5"}, {"measurement": "vomitus, incidence", "setting": "cynomolgus monkeys [4]; 100 mg/kg/day, males", "result": "1/5"}, {"measurement": "survival", "setting": "cynomolgus monkeys [4]; 3, 10, 30, 100 mg/kg/day, 28 days", "result": "All animals survived to their scheduled termination"}, {"measurement": "mean body (rectal) temperatures", "setting": "cynomolgus monkeys [4]; 30 and 100 mg/kg/day, 1, 2, and/or 4 hours post-dose, first day of treatment", "result": "larger decreases in mean body (rectal) temperatures"}, {"measurement": "hematology, coagulation, clinical chemistry, macroscopic and microscopic pathology", "setting": "cynomolgus monkeys [4]; 28 days, up to 100 mg/kg/day", "result": "No effect of treatment"}, {"measurement": "subjects with mild/moderate transaminase elevations", "setting": "healthy subjects; 250 mg BID for 7 days", "result": "one of 12 subjects"}, {"measurement": "subjects with mild/moderate transaminase elevations", "setting": "healthy subjects; 300 mg BID for 7 days", "result": "one of 12 subjects"}, {"measurement": "liver injury in healthy subjects", "setting": "healthy subjects; multiple doses up to 200 mg BID for 7 days", "result": "No evidence of liver injury"}, {"measurement": "liver injury in healthy subjects", "setting": "healthy subjects; single dose studies up to 600 mg", "result": "No evidence of liver injury"}]}
